Assay results reported in ChEMBL document CHEMBL1201862, “PubChem BioAssay data set” (2004).
Active and inactive are the calls of the source.

Assays:
Type in all cases: functional
[1] = target: Intestinal-type alkaline phosphatase (Homo sapiens, UniProt P09923); assay: inhibition of human intestinal alkaline phosphatase – biochemical, dose response (AID 488876)
[2] = target: Intestinal-type alkaline phosphatase (Mus musculus, UniProt P24822); assay: PubChem AID 488785
[3] = target: T1, Alkaline phosphatase, tissue-nonspecific isozyme (Homo sapiens, UniProt P05186); assay: TNAP enzyme inhibition by screening hits, dose response, selectivity assay for mouse IAP inhibitor project, biochemical, human TNAP, uHTS hits (AID 488906)
T1 sequence (P05186 whole entry): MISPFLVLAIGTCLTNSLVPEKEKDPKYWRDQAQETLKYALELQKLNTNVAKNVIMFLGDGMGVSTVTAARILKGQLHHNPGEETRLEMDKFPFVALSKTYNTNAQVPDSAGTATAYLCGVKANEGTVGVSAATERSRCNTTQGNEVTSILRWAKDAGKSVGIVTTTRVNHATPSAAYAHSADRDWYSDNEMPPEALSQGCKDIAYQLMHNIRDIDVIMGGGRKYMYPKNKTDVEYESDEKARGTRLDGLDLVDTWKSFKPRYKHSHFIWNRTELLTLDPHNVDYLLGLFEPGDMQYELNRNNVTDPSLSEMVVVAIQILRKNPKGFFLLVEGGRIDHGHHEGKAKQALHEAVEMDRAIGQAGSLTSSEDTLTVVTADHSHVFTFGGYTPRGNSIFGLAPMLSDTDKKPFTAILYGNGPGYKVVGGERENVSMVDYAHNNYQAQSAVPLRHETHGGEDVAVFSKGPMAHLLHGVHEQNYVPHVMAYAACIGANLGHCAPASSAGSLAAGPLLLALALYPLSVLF

[4] = target: T2, Tyrosine-protein phosphatase non-receptor type 22 (Homo sapiens, UniProt Q9Y2R2)
[5] = target: Tyrosine-protein phosphatase non-receptor type 7 (Homo sapiens, UniProt P35236)
[6] = target: T3, Replicative DNA helicase DnaB (Mycobacterium tuberculosis, UniProt P9WMR3); assay: DnaB intein splicing inhibitors, dose response, biochemical, cell-free fluorescence (AID 449749)
T3 sequence (P9WMR3 whole entry): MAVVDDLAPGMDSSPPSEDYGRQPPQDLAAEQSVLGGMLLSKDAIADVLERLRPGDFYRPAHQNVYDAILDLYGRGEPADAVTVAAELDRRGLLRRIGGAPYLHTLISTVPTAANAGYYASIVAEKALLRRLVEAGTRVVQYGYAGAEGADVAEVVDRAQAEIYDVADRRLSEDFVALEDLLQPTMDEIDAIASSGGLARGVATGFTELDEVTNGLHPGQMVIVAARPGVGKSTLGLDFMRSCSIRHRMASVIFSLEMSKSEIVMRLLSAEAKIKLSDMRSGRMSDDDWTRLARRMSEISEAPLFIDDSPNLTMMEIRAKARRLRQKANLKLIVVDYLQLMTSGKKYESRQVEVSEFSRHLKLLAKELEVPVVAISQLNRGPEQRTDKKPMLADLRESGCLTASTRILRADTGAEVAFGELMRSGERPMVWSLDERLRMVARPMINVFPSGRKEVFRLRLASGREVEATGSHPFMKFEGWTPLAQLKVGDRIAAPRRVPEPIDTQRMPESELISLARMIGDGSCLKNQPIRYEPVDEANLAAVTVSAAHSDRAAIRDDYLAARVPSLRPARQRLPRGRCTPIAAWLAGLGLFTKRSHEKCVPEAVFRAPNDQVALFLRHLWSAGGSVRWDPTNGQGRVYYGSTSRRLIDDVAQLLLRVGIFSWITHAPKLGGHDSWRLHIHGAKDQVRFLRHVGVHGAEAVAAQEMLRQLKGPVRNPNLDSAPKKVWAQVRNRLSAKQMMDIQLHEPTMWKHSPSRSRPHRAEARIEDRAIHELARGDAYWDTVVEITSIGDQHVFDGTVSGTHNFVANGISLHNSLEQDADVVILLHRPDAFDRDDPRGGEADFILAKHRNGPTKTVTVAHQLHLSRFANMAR

[7] = target: T2, Tyrosine-protein phosphatase non-receptor type 22; remark: listed apart in the source
[8] = target: T4, Protein RecA (Mycobacterium tuberculosis, UniProt P9WHJ3); assay: Fluorescence Cell-Free Homogeneous Dose Retest to Identify Inhibitors of RecA-Intein Splicing Activity. [Related pubchem assays (depositor defined):AID2097, AID2223, AID489010, AID492950]
T4 sequence (P9WHJ3 whole entry): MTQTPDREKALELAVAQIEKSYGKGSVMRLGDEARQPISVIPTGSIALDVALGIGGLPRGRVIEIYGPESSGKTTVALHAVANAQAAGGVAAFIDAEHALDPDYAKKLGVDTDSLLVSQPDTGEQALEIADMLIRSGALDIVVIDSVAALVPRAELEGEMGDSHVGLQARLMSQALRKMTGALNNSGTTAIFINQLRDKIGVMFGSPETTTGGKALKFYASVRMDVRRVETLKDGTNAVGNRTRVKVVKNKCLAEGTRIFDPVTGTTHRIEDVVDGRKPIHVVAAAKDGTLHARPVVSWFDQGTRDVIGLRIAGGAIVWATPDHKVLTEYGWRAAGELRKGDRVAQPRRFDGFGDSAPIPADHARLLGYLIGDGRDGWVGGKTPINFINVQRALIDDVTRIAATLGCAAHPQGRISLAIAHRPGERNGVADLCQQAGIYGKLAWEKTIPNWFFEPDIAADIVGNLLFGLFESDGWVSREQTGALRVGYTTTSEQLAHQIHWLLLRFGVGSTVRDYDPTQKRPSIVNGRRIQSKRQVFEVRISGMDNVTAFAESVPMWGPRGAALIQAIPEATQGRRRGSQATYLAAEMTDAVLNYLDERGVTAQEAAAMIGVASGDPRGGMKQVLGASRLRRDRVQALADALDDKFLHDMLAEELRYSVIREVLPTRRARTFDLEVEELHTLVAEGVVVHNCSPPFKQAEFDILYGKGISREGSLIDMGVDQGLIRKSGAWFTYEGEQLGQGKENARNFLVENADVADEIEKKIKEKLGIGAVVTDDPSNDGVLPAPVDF

[9] = target: Prothrombin (Homo sapiens, UniProt P00734); assay: Thrombin 1536 HTS Dose Response Confirmation. [Related pubchem assays: 1046 (Thrombin 1536 HTS; hits were confirmed in this assay)]
[10] = target: T5, Ubiquitin-conjugating enzyme E2 N (Homo sapiens, UniProt P61088)
T5 sequence (P61088 whole entry): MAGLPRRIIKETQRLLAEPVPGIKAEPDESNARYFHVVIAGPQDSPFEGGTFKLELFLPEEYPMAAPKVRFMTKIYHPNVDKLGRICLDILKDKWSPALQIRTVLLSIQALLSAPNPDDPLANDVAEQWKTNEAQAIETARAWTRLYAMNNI

[11] = target: T5, Ubiquitin-conjugating enzyme E2 N; remark: listed apart in the source
[12] = target: T6, Bcl-2-related protein A1 (Mus musculus, UniProt Q07440);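 also: confirmatory dose–response counterscreen on Bfl-1, used to check hits from a UBC13 polyubiquitin inhibitor campaign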
T6 sequence (Q07440 whole entry): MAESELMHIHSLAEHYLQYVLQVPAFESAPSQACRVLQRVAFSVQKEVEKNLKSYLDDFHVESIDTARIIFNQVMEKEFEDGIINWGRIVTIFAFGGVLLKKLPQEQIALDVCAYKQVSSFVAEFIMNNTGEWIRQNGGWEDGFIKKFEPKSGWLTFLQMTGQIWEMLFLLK

[13] = target: T7, Cannabinoid receptor 1 (Homo sapiens, UniProt P21554); assay: SAR analysis of antagonists of the Cannabinoid Receptor 1 using an Image-Based Assay - Set 4. [Related pubchem assays (depositor defined):AID2013, AID2026]
[14] = target: T8, Cannabinoid receptor 2 (Homo sapiens, UniProt P34972); assay: SAR analysis of agonists of the Cannabinoid Receptor 2 using an Image-Based Assay - Set 3. [Related pubchem assays (depositor defined):AID2013, AID2026]
[15] = target: T9, G-protein coupled receptor 35 (Homo sapiens, UniProt Q9HC97); assay: SAR analysis of Antagonists of the GPR35 Receptor using an Image-Based Assay - Set 6. [Related pubchem assays (depositor defined):AID2013, AID2026]
[16] = target: T7, Cannabinoid receptor 1; assay: SAR analysis of agonists of the Cannabinoid Receptor 1 using an Image-Based Assay - Set 4. [Related pubchem assays (depositor defined):AID2013, AID2026]
[17] = target: T8, Cannabinoid receptor 2; assay: SAR analysis of antagonists of the Cannabinoid Receptor 2 using an Image-Based Assay - Set 3. [Related pubchem assays (depositor defined):AID2013, AID2026]
[18] = target: T9, G-protein coupled receptor 35; assay: SAR analysis of Agonists of the GPR35 Receptor using an Image-Based Assay - Set 4. [Related pubchem assays (depositor defined):AID2013, AID2026]
[19] = target: G-protein coupled receptor 55 (Homo sapiens, UniProt Q9Y2T6); assay: SAR Analysis of Selective Antagonists of GPR55 using an Image-Based Assay - Set 4. [Related pubchem assays (depositor defined):AID2013, AID2026];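 also: antagonism of response to 5 µM lysophosphatidylinositol agonist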
Chain of G-protein coupled receptor 55 (Q9Y2T6 whole entry): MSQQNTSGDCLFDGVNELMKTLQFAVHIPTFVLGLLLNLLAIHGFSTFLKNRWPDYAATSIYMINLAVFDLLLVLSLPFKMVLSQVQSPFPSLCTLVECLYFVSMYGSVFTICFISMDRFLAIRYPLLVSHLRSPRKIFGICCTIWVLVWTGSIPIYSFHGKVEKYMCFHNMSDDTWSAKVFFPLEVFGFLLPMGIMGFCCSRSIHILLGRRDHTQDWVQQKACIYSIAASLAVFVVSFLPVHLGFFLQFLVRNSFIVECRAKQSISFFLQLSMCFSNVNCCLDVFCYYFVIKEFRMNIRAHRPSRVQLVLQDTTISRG

T8 sequence (P34972 whole entry): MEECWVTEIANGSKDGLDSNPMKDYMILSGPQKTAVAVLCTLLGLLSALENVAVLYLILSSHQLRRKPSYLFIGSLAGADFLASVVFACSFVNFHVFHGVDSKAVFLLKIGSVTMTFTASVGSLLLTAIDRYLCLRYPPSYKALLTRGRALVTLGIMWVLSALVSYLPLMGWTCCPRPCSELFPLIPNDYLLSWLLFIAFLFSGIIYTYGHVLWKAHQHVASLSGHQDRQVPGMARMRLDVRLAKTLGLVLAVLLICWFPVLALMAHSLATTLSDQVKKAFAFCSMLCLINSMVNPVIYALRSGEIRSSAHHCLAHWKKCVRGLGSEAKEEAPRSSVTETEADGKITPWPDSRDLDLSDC
T2 sequence (Q9Y2R2 whole entry): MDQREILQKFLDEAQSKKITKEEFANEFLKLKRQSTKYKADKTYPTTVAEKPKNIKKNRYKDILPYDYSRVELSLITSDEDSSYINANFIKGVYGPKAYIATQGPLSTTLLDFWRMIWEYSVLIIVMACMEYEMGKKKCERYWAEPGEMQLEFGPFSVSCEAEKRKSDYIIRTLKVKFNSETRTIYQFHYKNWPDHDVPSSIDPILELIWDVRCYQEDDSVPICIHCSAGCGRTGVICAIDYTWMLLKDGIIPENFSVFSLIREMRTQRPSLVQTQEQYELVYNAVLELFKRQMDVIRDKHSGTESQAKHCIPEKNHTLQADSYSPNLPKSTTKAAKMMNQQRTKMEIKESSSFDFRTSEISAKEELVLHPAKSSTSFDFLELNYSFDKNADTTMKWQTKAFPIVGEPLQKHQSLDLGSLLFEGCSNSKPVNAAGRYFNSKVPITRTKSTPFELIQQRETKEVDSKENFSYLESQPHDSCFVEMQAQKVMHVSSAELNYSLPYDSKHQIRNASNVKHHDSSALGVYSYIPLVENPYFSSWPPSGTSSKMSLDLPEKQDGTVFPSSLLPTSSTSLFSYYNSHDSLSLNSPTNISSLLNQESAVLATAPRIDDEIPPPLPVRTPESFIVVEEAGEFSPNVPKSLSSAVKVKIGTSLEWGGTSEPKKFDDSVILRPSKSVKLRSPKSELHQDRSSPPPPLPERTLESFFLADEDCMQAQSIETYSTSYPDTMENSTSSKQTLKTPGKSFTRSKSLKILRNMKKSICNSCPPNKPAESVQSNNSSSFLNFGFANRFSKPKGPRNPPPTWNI
T7 sequence (P21554 whole entry): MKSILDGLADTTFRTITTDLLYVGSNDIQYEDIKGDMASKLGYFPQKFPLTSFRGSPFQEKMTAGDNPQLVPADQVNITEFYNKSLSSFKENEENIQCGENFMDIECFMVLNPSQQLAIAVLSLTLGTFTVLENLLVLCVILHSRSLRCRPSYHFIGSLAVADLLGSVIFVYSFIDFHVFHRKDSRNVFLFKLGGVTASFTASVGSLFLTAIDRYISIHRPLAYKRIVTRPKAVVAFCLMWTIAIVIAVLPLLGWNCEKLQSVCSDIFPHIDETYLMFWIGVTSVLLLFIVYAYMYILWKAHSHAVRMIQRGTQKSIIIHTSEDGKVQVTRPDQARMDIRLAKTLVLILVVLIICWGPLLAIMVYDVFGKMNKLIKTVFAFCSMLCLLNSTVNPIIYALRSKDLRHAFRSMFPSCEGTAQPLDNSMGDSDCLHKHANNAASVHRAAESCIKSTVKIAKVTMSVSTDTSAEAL
T9 sequence (Q9HC97 whole entry): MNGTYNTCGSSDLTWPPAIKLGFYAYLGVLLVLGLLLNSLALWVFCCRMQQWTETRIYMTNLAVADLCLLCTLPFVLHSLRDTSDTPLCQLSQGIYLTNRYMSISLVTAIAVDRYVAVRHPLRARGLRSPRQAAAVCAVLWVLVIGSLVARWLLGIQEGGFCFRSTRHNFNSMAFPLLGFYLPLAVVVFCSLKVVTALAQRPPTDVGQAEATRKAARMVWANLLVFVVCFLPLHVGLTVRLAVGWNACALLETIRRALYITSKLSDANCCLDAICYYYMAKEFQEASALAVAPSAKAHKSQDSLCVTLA
Chain of Tyrosine-protein phosphatase non-receptor type 7 (P35236 whole entry): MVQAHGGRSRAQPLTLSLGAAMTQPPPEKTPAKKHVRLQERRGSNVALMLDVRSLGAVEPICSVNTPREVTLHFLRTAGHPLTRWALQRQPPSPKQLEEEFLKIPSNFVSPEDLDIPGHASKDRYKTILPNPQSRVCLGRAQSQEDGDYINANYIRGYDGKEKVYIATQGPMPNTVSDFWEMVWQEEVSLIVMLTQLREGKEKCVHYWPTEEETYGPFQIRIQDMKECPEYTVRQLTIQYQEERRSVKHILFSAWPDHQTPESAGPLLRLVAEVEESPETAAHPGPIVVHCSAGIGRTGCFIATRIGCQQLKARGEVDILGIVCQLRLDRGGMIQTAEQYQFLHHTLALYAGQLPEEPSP
Chain of Intestinal-type alkaline phosphatase (Homo sapiens, UniProt P09923) (P09923 whole entry): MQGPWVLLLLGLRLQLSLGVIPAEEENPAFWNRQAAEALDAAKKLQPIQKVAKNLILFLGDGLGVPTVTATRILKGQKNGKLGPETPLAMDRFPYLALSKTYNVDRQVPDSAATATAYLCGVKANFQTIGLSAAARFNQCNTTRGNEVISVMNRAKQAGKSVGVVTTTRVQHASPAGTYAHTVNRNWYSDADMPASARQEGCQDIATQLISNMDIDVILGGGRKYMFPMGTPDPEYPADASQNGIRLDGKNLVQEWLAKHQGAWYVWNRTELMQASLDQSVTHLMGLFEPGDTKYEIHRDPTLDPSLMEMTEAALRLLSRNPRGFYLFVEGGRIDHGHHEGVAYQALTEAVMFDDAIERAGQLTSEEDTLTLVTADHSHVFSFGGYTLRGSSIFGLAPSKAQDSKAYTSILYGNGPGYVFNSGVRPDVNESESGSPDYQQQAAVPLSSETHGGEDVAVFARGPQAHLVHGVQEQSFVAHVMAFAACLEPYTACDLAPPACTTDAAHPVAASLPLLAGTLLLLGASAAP
Chain of Intestinal-type alkaline phosphatase (Mus musculus, UniProt P24822) (P24822 whole entry): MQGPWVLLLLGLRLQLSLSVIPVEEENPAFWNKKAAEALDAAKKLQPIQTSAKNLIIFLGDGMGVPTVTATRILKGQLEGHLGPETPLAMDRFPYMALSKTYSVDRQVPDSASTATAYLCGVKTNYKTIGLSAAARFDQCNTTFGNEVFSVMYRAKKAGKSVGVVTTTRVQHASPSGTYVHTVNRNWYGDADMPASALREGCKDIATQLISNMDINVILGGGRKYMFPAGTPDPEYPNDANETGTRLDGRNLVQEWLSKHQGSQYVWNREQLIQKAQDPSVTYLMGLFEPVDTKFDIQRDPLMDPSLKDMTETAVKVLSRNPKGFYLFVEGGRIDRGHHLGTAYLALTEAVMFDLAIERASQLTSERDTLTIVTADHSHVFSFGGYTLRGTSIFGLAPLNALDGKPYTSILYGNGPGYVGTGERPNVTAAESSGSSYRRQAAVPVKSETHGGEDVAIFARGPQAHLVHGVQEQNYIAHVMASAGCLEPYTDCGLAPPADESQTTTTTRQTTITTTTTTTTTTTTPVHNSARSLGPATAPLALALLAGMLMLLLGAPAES

`S=C(NCc1ccccc1)NC1CCSc2ccccc21` (centres undefined) was tested, and the IC50 [1] was 60.7 µM (active), the IC50 [2] was 3.3 µM (active) and the IC50 [3] was 45.5 µM (active).

With `CSc1nc(-c2ccc(Cl)cc2)nn1C(=O)c1ccco1` the IC50 [4] was > 79.4 µM (inactive), the IC50 [5] was > 79.4 µM (inactive) and the AC50 [6] was 0.387 µM (active). For the same compound, the IC50 [7] was > 79.4 µM (inactive), the EC50 [8] was > 380 µM (inactive) and the IC50 [9] was 2.31 µM (active).

In the case of `Cc1ccc(C(=O)NC(C)c2ccc(-n3ccnc3)cc2)cc1S(=O)(=O)N1CCOCC1` (centres undefined), the IC50 [10] is reported as 11.5 µM (active), the IC50 [11] is reported as 17.3 µM (active) and the IC50 [12] is reported as > 20 µM (inactive).

With `Cc1ccc(-n2cc3c(-c4ccccc4)nnc(C)c3n2)cc1` the IC50 [13] was 8.66 µM (active), the EC50 [14] was > 32 µM (inactive) and the IC50 [15] was > 32 µM (inactive). For the same compound, the EC50 [16] was > 32 µM (inactive), the IC50 [17] was > 32 µM (inactive) and the EC50 [18] was > 32 µM (inactive). For the same compound, the IC50 [19] was 6.89 µM (active).
